# Reference: patent US6359112B2 (Fraunhofer-Gesellschaft zur Forferung der angewandten …, priority 1997, dated 2002)
# Where two headings read alike, the source gives them in different places. No end group written: not given here.
# How the values were obtained:
# [1] = test system: human astroglioma-cell series (HTB-14)
# Procedure: (§1) FIG. 4 is a graph of MTT reduction as a function of concentration of NFGAIL, SEQ ID NO: 3.
# (§2) Suspensions of the peptide aggregate (produced as described as above) were tested by means of a Rat Insulinoma (RIN5 mf) and a human astroglioma-cell series (HTB-14) for toxicity. The newly dissolved peptides were also tested for cytotoxicity.
# [2] = test system: Rat Insulinoma (RIN5 mf)
# Procedure: as §1, §2
# [3] = aggregated form (suspension of peptide aggregate)
# [4] = soluble form (newly dissolved peptide)
substance,measurement,setting,value
NFGAIL [NFGAIL],Cytotoxicity,[1]; [3],cyto-toxic
same,Cytotoxicity,[1]; [4],no toxicity
same,Cytotoxicity,[2]; [3],cyto-toxic
same,Cytotoxicity,[2]; [4],no toxicity
